Tested on: Pseudomonas aeruginosa PAM1001
Assay: checkerboard assay (broth microdilution): levofloxacin MIC in presence of efflux pump inhibitor
Type: cell-based
Protocol: For compounds labeled with the prefix ‘M’, potentiation effect is observed by the reduction of the minimum inhibitory concentration of levofloxacin in the presence of the experimental efflux pump inhibitor. The activity of efflux pump inhibitors (EPI) in combination with fluoroquinolones, such as levofloxacin, is assessed by the checkerboard assay (Antimicrobial Combinations. In Antibiotics in Laboratory Medicine, Ed. Victor Lorian, M.D., Fourth edition, 1996, pp 333-338) using broth microdilution method performed as recommended by the National Committee for Clinical Laboratory Standards (1997). Methods for Dilution of Antimicrobial Susceptibility Tests for Bacteria That Grow Aerobically—Fourth Edition; Approved Standard. NCCLS Document M7-A4, Vol 17 No.2). The test organism used is Pseudomonas aeruginosa PAM1001. […] The compounds tabulated below are representative of the described invention.
In these assays, multiple dilutions of two drugs, namely the EPI and levofloxacin, are being tested, alone and in combination, at concentrations equal to, above and below their respective minimal inhibitory concentrations (MICs). In the case of EPI, most of these compounds are devoid of intrinsic antimicrobial activity and are tested up to the maximum concentration of 40 μg/mL. The MIC of levofloxacin against P. aeruginosa PAM1001 is 4 μg/mL.
The EPI tested are readily soluble in water and stock solutions are prepared at a final concentration of 2 mg/mL. Stock solutions are further diluted, according to the needs of a particular assay, in Mueller Hinton Broth (MHB). Stock solution can be stored at −80° C. Quinolones are solubilized according to the instructions of the manufacturers, at a concentration of 1 mg/mL. They are then further diluted in MHB. Stock solution can be stored at −80° C.
The checkerboard assay is performed in microtiter plates. Levofloxacin is diluted in the x axis, each column containing a single concentration of levofloxacin. The EPI is diluted in the y axis, each row containing an equal concentration of EPI. The result of these manipulations is that each well of the microtiter plate contains a unique combination of concentrations of the two agents. Each EPI are tested independently.
The assay is performed in MHB with a final bacterial inoculum of 5×10^5 CFU/mL (from an early-log phase culture). Microtiter plates are incubated during 20 h at 35° C. and are read using a microtiter plate reader (Molecular Devices) at 650 nm as well as visual observation using a microtiterplate reading mirror.

| Compound | Levofloxacin MIC Against P. aerugiuosa PAM1001 in Presence of Efflux Pump Inhibitor (EPI), Minimum Inhibitory Concentration (EPI Conc. 0 μg/mL) [µg/mL] | Levofloxacin MIC Against P. aerugiuosa PAM1001 in Presence of Efflux Pump Inhibitor (EPI), Minimum Inhibitory Concentration (EPI Conc. 0.625 μg/mL) [µg/mL] | Levofloxacin MIC Against P. aerugiuosa PAM1001 in Presence of Efflux Pump Inhibitor (EPI), Minimum Inhibitory Concentration (EPI Conc. 1.25 μg/mL) [µg/mL] | Levofloxacin MIC Against P. aerugiuosa PAM1001 in Presence of Efflux Pump Inhibitor (EPI), Minimum Inhibitory Concentration (EPI Conc. 2.5 μg/mL) [µg/mL] | Levofloxacin MIC Against P. aerugiuosa PAM1001 in Presence of Efflux Pump Inhibitor (EPI), Minimum Inhibitory Concentration (EPI Conc. 5 μg/ mL) [µg/mL] | Levofloxacin MIC Against P. aerugiuosa PAM1001 in Presence of Efflux Pump Inhibitor (EPI), Minimum Inhibitory Concentration (EPI Conc. 10 μg/mL) [µg/mL] | Levofloxacin MIC Against P. aerugiuosa PAM1001 in Presence of Efflux Pump Inhibitor (EPI), Minimum Inhibitory Concentration (EPI Conc. 20 μg/mL) [µg/mL] | Levofloxacin MIC Against P. aerugiuosa PAM1001 in Presence of Efflux Pump Inhibitor (EPI), Minimum Inhibitory Concentration (EPI Conc. 40 μg/mL) [µg/mL] |
| --- | --- | --- | --- | --- | --- | --- | --- | --- |
| CC(C)(C)c1ccc2ncc(NC(=O)[C@@H]3C[C@@H](OCCN)CN3)cc2c1 [Compound M92, (2S,4R)-4-(2-Aminoethyloxy)-N-(6-(1,1-dimethyl)ethyl-3-quinolyl)-2-pyrrolidinecarboxamide] | 4 | 4 | 4 | 4 | 4 | 2 | 0.06 | 0.008 |
| NCC(=O)N[C@H]1CN[C@H](c2nc3ccc(Cc4ccccc4)cc3[nH]2)C1 [Compound M73, (2S,4R)-4-(2-Aminoacetamido)-2-(5-benzyl-2-benzmidazolyl)pyrrolidine] | 4 | 4 | 4 |  |  |  |  |  |
| NC[C@@H]1CN[C@@H](C(=O)N[C@H](CCc2ccccc2)C(=O)NCc2cnc3ccccc3c2)C1 [Compound M32] | 4 | 4 | 4 | 4 | 2 | 1 | 0.25 | 0.25 |
| NC[C@@H]1CN[C@@H](C(=O)N[C@H](CCc2ccccc2)C(=O)Nc2ccc3ncccc3c2)C1 [Compound M29, (2R,4R)-4-(Aminomethyl)-N-[(1R)-3-pheyl-1-(6-quinolylcarbamoyl)propyl]-2-pyrrolidinecarboxamide] | 4 | 4 | 4 | 2 | 1 | 0.25 | 0.06 | 0.03 |
| (2S,4R)-4-(2-Aminoacetamido)-N-[4-benzyl-2-benzimidazolyl)ethyl]-2-pyrrolidinecarboxamide [Compound M99] | 4 | 4 | 4 | 4 | 4 | 4 | 0.06 | 0.03 |
| NC[C@H]1CN[C@@H](C(=O)NCc2nc3ccc(Cc4ccccc4)cc3[nH]2)C1 [Compound M87, (2R,4S)-4-(Aminomethyl)-N-[(5-benzyl-2-benzimidazoiyl)methyl]-2-pyrrolidinecarboxamide] | 4 | 4 | 4 | 1 | 0.125 | 0.06 | 0.03 |  |
| NC[C@@H]1CN[C@@H](C(=O)N[C@H](CCc2ccccc2)CNC(=O)c2cnc3ccccc3c2)C1 [Compound M103, (2R,4R)-4-(Aminomethyl)-N-[(1R)-3-phenyl-1-[(3-quinolylcarboxamido)methyl]propyl]-2-pyrrolidinecarboxamide] | 4 | 4 | 4 | 4 | 2 | 1 | 0.03 | 0.015 |
| NCC(=O)N[C@H]1CN[C@@H](C(=O)N(CCc2ccccc2)CC(=O)Nc2cnc3ccccc3c2)C1 [Compound M46] | 4 | 4 | 4 | 4 | 4 | 4 | 1 | 0.5 |
| N=C(N)N[C@H]1CN[C@H](C(=O)N[C@H](CCc2ccccc2)C(=O)Nc2cnc3ccccc3c2)C1 [Compound M95, (2S,4R)-4-(Guanadinyl)-N-[(1R)-3-phenyl-1-(3-quinolylcarbamoyl)propyl]-2-pyrrolidinecarboxamide] | 4 | 4 | 4 | 4 | 4 | 4 | 0.03 | 0.015 |
| NCC(=O)N[C@H]1CN[C@H](C(=O)NCc2nc3ccccc3n2CCc2ccccc2)C1 [Compound M80, (2S,4R)-4-(2-Aminoacetamido)-N-[(1-(2-phenyl)ethyl-2-benzimidazoly)methyl]-2-pyrrolidinexarboxamide] | 4 | 4 | 4 | 4 | 2 | 0.25 | 0.06 | 0.06 |

— patent publication US6399629B1, “Efflux pump inhibitors” (priority 1998, dated 2002)
